In the assay the target is T1, recombinant GSK3β enzyme (human GSK3β) (Homo sapiens, UniProt P49841).
T1 construct: FLAG (N); made in house; host or cells: Sf-21 insect cells, recombinant baculovirus (pFASTBAC1 / BAC-TO-BAC)
T1 sequence (P49841 whole entry): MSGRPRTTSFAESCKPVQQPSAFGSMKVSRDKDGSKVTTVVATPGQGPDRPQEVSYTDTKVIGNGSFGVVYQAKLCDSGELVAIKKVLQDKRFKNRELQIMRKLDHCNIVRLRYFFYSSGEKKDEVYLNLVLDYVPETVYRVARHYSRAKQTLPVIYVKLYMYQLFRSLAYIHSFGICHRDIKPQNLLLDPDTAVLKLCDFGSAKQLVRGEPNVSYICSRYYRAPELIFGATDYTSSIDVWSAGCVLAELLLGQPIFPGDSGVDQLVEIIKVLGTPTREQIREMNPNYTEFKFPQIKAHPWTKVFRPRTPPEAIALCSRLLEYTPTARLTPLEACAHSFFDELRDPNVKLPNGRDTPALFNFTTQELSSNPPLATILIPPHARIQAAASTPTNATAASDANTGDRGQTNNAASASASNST
Nature of the assay: Measurement of GSK3β inhibitory activity. In kind it is biochemical. Particulars: glycogen synthase peptide substrate, Kinase Glo luminescence, read-out: IC50 (concentration of test compound needed for 50% inhibition of luminescent intensity), GSK3β inhibitory activity. The text has this:
Human GSK3β gene was cloned by a PCR method using a primer set:
prepared using human brain cDNA (Clontech; trade name: QUICK-Clone cDNA) as a template and in reference to the base sequence of GSK3β gene registered in GenBank under Accession Number NM_002093.
PCR was done according to the protocol attached to KOD plus DNA polymerase (Toyo Boseki Kabushiki Kaisha). The obtained PCR product was electrophoresed on agarose gel (1%), and 1.2 kb of DNA fragment including GSK3β gene was collected from the gel and then digested with restriction enzymes EcoR I and Sal I. The restriction enzyme-treated DNA was electrophoresed on agarose gel (1%). The obtained DNA fragment was collected, and ligated to the plasmid pFASTBAC1 (Invitrogen), which had been digested with restriction enzyme EcoR I and Sal I, to produce expression plasmid pFB-GSK3B. The base sequence of insertion fragment was confirmed to find that it corresponded to the objective sequence. In addition, virus stock BAC-GSK3B of recombinant Baculovirus was prepared using BAC-TO-BAC Baculovirus Expression System (Invitrogen).
Sf-21 cells (Invitrogen) were seeded on Sf-900 II SFM medium (Invitrogen)(150 ml) containing 10% fetal calf serum at 1×10^6 cells/ml, and cultured at 27° C. for 24 hr. The virus stock […] obtained above of recombinant Baculovirus was added by 150 μl to the obtained culture medium, and the cells were cultured for another 60 hr. The culture medium was centrifuged (3000 rpm, 10 min) to separate the cells, and the cells were washed once with PBS. The cells were suspended in 10 ml of cell lysis buffer (25 mM HEPES (pH 7.5), 1% Triton X, 130 mM sodium chloride, 1 mM EDTA, 1 mM Dithiothreitol, 25 mM β-glycerophosphate, Protease inhibitor Complete (Boehringer), 1 mM Sodium orthovanadate), treated 4 times using a homogenizer (POLYTRON) at 20000 rpm for 30 sec to disrupt the cells. The disrupted solution of cells was centrifuged (40000 rpm, 45 min.), and GSK3β was purified from the obtained supernatant using Anti-FLAG M2 Affinity Gel (Sigma Ltd.).
10 μl of ATP solution (2.5 μM ATP) was added to the obtained mixture, and the mixture was reacted at room temperature for 30 min. Kinase Glo Reagent (Promega) (50 μl) was added to the reaction solution to stop the reaction. After reaction at room temperature for 10 min, the luminescent intensity was measured using ARVO multilabel counter (PerkinElmer Life Sciences). The concentrations of the test compounds needed for 50% inhibition of luminescent intensity (IC50 value) were calculated by PRISM 3.0 (GraphPad Software).
(Kinase-Glo reads ATP consumption through a luciferase reaction.)
As for `CCOCC(=O)Nc1c[nH]nc1C(=O)NCc1ccco1` [Example 147, 4-[(ethoxyacetyl)amino]-N-(2-furylmethyl)-1H-pyrazole-3-carboxamide], the IC50 was less than 100 nM. In the case of `O=C(/C=C/c1ccccc1)Nc1c[nH]nc1C(=O)NCc1ccco1` [Example 148, N-(2-furylmethyl)-4-{[(2E)-3-phenylprop-2-enoyl]amino}-1H-pyrazole-3-carboxamide] it was 388 nM; in that of `O=C(CCc1ccccc1)Nc1c[nH]nc1C(=O)NCc1ccco1` [Example 149, N-(2-furylmethyl)-4-[(3-phenylpropanoyl)amino]-1H-pyrazole-3-carboxamide], 334 nM. In the case of `O=C(Nc1c[nH]nc1C(=O)NCc1ccccc1)c1ccccn1` [Example 337, N-(3-((benzylamino)carbonyl)-1H-pyrazol-4-yl)pyridine-2-carboxamide] it was less than 100 nM. In the case of `O=C(Nc1c[nH]nc1C(=O)NCCc1ccccc1)c1ccccn1` [Example 338, N-(3-(((2-phenylethyl)amino)carbonyl)-1H-pyrazol-4-yl)pyridine-2-carboxamide] it was less than 100 nM; in that of `O=C(Nc1c[nH]nc1C(=O)NC1Cc2ccccc2C1)c1ccccn1` [Example 339], less than 100 nM; in that of `O=C(Nc1c[nH]nc1C(=O)NC1CCc2ccccc21)c1ccccn1` (centres unmarked) [Example 340], 300 nM. In the case of `O=C(Nc1c[nH]nc1C(=O)Nc1ccccc1)c1ccccn1` [Example 341, N-(3-(anilinocarbonyl)-1H-pyrazol-4-yl)pyridine-2-carboxamide], the IC50 was less than 100 nM.

Consider `O=C(Nc1c[nH]nc1C(=O)NCCCc1ccccc1)c1ccccn1` [Example 342, N-(3-(((3-phenylpropyl)amino)carbonyl)-1H-pyrazol-4-yl)pyridine-2-carboxamide], for which the IC50 is less than 100 nM. The figure for `O=C(Nc1c[nH]nc1C(=O)Nc1cccc(C(F)(F)F)c1)c1ccccn1` [Example 343, N-(3-(((3-(trifluoromethyl)phenyl)amino)carbonyl)-1H-pyrazol-4-yl)pyridine-2-carboxamide] is less than 100 nM; for `O=C(Nc1c[nH]nc1C(=O)NC1CCCC1)c1ccccn1` [Example 344, N-(3-((cyclopentylamino)carbonyl)-1H-pyrazol-4-yl)pyridine-2-carboxamide] it is less than 100 nM. The figure for `CC(C)NC(=O)c1n[nH]cc1NC(=O)c1ccccn1` [Example 345, N-(3-((isopropylamino)carbonyl)-1H-pyrazol-4-yl)pyridine-2-carboxamide] is less than 100 nM. In the case of `CNC(=O)c1n[nH]cc1NC(=O)c1ccccn1` [Example 346, N-(3-((methylamino)carbonyl)-1H-pyrazol-4-yl)pyridine-2-carboxamide] it was less than 100 nM. For the molecule `O=C(Nc1c[nH]nc1C(=O)NCc1ccco1)c1ccccn1` [Example 347, N-(3-(((2-furylmethyl)amino)carbonyl)-1H-pyrazol-4-yl)pyridine-2-carboxamide], the IC50 was less than 100 nM. In the case of `O=C(Nc1c[nH]nc1C(=O)NCCc1c[nH]c2ccccc12)c1ccccn1` [Example 348, N-(3-(((2-(1H-indol-3-yl)ethyl)amino)carbonyl)-1H-pyrazol-4-yl)pyridine-2-carboxamide] it was less than 100 nM; in that of `O=C(Nc1c[nH]nc1C(=O)NC1CCCCC1)c1ccccn1` [Example 349, N-(3-((cyclohexylamino)carbonyl)-1H-pyrazol-4-yl)pyridine-2-carboxamide], less than 100 nM; in that of `N#Cc1ccc(NCCNC(=O)c2n[nH]cc2NC(=O)c2ccccn2)nc1` [Example 350], less than 100 nM. For `O=C(Nc1c[nH]nc1C(=O)NCCc1ccc(Br)cc1)c1ccccn1` [Example 351, N-(3-(((2-(4-bromophenyl)ethyl)amino)carbonyl)-1H-pyrazol-4-yl)pyridine-2-carboxamide], the IC50 is less than 100 nM. In the case of `O=C(Nc1c[nH]nc1C(=O)NCCc1cccnc1)c1ccccn1` [Example 352, N-(3-(((2-pyridin-3-ylethyl)amino)carbonyl)-1H-pyrazol-4-yl)pyridine-2-carboxamide] it was less than 100 nM; in that of `CC(C)OCCCNC(=O)c1n[nH]cc1NC(=O)c1ccccn1` [Example 353, N-(3-(((3-isopropoxypropyl)amino)carbonyl)-1H-pyrazol-4-yl)pyridine-2-carboxamide], less than 100 nM; in that of `O=C(Nc1c[nH]nc1C(=O)NCc1ccc(-c2ccccc2)cc1)c1ccccn1` [Example 354, N-(3-(((biphenyl-4-ylmethyl)amino)carbonyl)-1H-pyrazol-4-yl)pyridine-2-carboxamide], less than 100 nM. Consider `O=C(Nc1c[nH]nc1C(=O)NCCOc1ccccc1)c1ccccn1` [Example 355, N-(3-(((2-phenoxyethyl)amino)carbonyl)-1H-pyrazol-4-yl)pyridine-2-carboxamide], for which the IC50 is less than 100 nM. `COCCNC(=O)c1n[nH]cc1NC(=O)c1ccccn1` [Example 356, N-(3-(((2-methoxyethyl)amino)carbonyl)-1H-pyrazol-4-yl)pyridine-2-carboxamide]: the IC50 is less than 100 nM. For `CC(C)OCCNC(=O)c1n[nH]cc1NC(=O)c1ccccn1` [Example 357, N-(3-(((2-isopropoxyethyl)amino)carbonyl)-1H-pyrazol-4-yl)pyridine-2-carboxamide], the IC50 is less than 100 nM. The figure for `N#CCCNC(=O)c1n[nH]cc1NC(=O)c1ccccn1` [Example 358, N-(3-(((2-cyanoethyl)amino)carbonyl)-1H-pyrazol-4-yl)pyridine-2-carboxamide] is less than 100 nM; for `O=C(CNC(=O)c1n[nH]cc1NC(=O)c1ccccn1)c1ccccc1` [Example 359, N-(3-(((2-oxo-2-phenylethyl)amino)carbonyl)-1H-pyrazol-4-yl)pyridine-2-carboxamide] it is less than 100 nM; for `O=C(Nc1c[nH]nc1C(=O)NCC(F)(F)F)c1ccccn1` [Example 360, N-(3-(((2,2,2-trifluoroethyl)amino)carbonyl)-1H-pyrazol-4-yl)pyridine-2-carboxamide] it is less than 100 nM. In the case of `O=C(Nc1c[nH]nc1C(=O)NCCSc1ccccc1)c1ccccn1` [Example 361, N-(3-(((2-(phenylthio)ethyl)amino)carbonyl)-1H-pyrazol-4-yl)pyridine-2-carboxamide] it was less than 100 nM.

As for `O=C(Nc1c[nH]nc1C(=O)NC1CCCC1)c1cccc2c1OCC2` [Example 362, N-cyclopentyl-4-((2,3-dihydro-1-benzofuran-7-ylcarbonyl)amino)-1H-pyrazole-3-carboxamide], the IC50 was less than 100 nM. The figure for `Cc1ncccc1C(=O)Nc1c[nH]nc1C(=O)NC1CCCC1` [Example 363, N-(3-((cyclopentylamino)carbonyl)-1H-pyrazol-4-yl)-2-methylnicotinamide] is less than 100 nM. The figure for `Cc1ccc(C(=O)Nc2c[nH]nc2C(=O)NC2CCCC2)cn1` [Example 364, N-(3-((cyclopentylamino)carbonyl)-1H-pyrazol-4-yl)-6-methylnicotinamide] is less than 100 nM; for `COc1ncccc1C(=O)Nc1c[nH]nc1C(=O)NC1CCCC1` [Example 365, N-(3-((cyclopentylamino)carbonyl)-1H-pyrazol-4-yl)-2-methoxynicotinamide] it is less than 100 nM.

The values are drawn from patent publication US20090156582A1, “Pyrazole Compound” (priority 2005, published 2009).
